Values joined by “and” are separate entries in the source; they are usually repeats but may differ in a detail not shown here. Equal values may be shown once. {DOTA-AEEA-S-S} = N-terminal DOTA chelator joined through an AEEA linker and two serines; {EEY-NH2} = C-terminal Glu-Glu-Tyr amide
Tests used:
SKOV3 xenografts = assay: Estimated dosimetry: areas under time-activity plots for kidney and tumor; type: in vivo, BALB/c nu/nu mice; details: non-decay corrected data, 4 and 144 h, pretargeted
Procedure: To estimate a ratio of absorbed doses in tumor and kidneys, cumulated activity in kidney and tumor were assessed. The estimation was based on a clinically validated two time point approach (Freedman 2020). The biodistribution data were non-decay corrected and areas under time-activity plot was calculated using GraphPad Prism software. The assumptions were that the main absorbed dose will be due to beta-particles, as cross-doses would be negligible, and the absorbed fraction would be equal to 1.

ZHER2:342-SR-HP15 = assay: SPR hybridization of complementary PNA probes to immobilized ZHER2:342-SR-HP15; type: binding; details: for kd: dissociation 10 000 s; for affinity to ZHER2:342-SR-HP15 relative to HP16: SPR, kd too slow to determine
Procedure: The kinetic parameters for hybridization of the PNA probes were analyzed using surface plasmon resonance (SPR) on a Biacore™ 8K instrument (GE Healthcare). Dextran chips Series S Sensor CM5 (GE Healthcare), were functionalized with ZHER2:342-SR-HP15 on four surfaces to 385, 194, 185 and 353 resonance units (RU) using standard amine coupling procedures. A reference surface on each chip was subjected to activation followed by deactivation. The complementary PNA probes HP16, HP17, HP18 and HP19 were injected at 5 concentrations; 22.6, 45.3, 90.6, 181.25 and 362.5 nM using a single cycle injection. Association for each concentration was allowed for 300 s, followed by the next injection and association phase. After injection of the final concentration, dissociation was allowed for 10 000 s (2 h 47 min) before regeneration with 10 mM HCl for 30 s followed by 15 mM NaOH for 30 s. All runs were performed in PBST (0.05% Tween-20) pH 7.4 using a flow rate of […] at 25° C. Kinetic parameters were calculated using 1:1 binding model in Biacore Insight Evaluation software.

HP15 = assay: Melting temperature of PNA hybridization complexes with HP15 (UV absorbance at 260 nm); type: physicochemical; details: duplex with HP15, monitored at 260 nm
Procedure: Melting temperatures for HP15:HP16, HP15:HP17 and HP15:HP18 were determined by monitoring UV absorbance at 260 nm (Chirascan™, Applied Photophysics) at a temperature range from 20 to 95° C., using a temperature change of 1° C./min. The PNA complexes were heated to 80° C. for 5 min and were then allowed to hybridize at room temperature for 5 min prior to UV monitoring at room temperature for 5 min. CD spectra were collected before and after determination of thermal denaturation. The melting temperature for the HP15:HP19 complex was determined using a Varian Cary 50 Bio UV-visual spectrophotometer equipped with a single-cell Peltier thermostat controlled cuvette holder. The temperature in the cell was adjusted at a speed of 0.5° C./min between 20 to 80° C., and measurements were taken at 260 nm after a 60 s equilibration at each temperature point.

[1] = In vitro stability of 177Lu-labeled probes (EDTA challenge, PBS control); type: physicochemical; details: 177Lu-labeled probe, 500-fold molar excess of EDTA
Procedure: To evaluate stability, a fraction of the freshly radiolabeled conjugate (0.4 μg) was incubated with 500-fold molar excess of EDTA for 60 min at 37° C. Incubation was also performed in PBS as a control. The test was run in triplicates.

[2] = binding to immobilized ZHER2:342-SR-HP15, SPR

Row | Substance | Tumor-to-kidney ratio (areas under time-activity plots) (SKOV3 xenografts) | ka (ZHER2:342-SR-HP15; [2]) | Kd (ZHER2:342-SR-HP15; binding to immobilized ZHER2:342-SR-HP15, SPR, 25° C., 1:1 model) | kd (ZHER2:342-SR-HP15; [2]) | Tm (HP15) | Stability (×500 EDTA), 37° C., 1 h [1] | affinity to ZHER2:342-SR-HP15 relative to HP16 (ZHER2:342-SR-HP15) | Kd (ZHER2:342-SR-HP15; interaction with HP15, SPR)
1 | DOTA-AEEA-S-S-a-a-c-a-c-c-a-g-g-E-E-Y-NH2 (AACACCAGG; chemistry not fully specified) [HP16, secondary probe, 9-mer PNA] | 3.8 | 46000 M⁻¹ s⁻¹ | ~0.28 nM and 0.28 nM | 1.2e-05 s⁻¹ | 73 °C | 100 ± 0 | – | –
2 | DOTA-AEEA-S-S-a-t-c-a-a-c-a-c-c-a-g-g-E-E-Y-NH2 (ATCAACACCAGG; chemistry not fully specified) [HP17, secondary probe, 12-mer PNA] | 2.8 | 43000 M⁻¹ s⁻¹ | – | too slow to be determined | 75 °C | 100 ± 0 | estimated to be higher | –
3 | DOTA-AEEA-S-S-a-t-c-a-t-c-a-a-c-a-c-c-a-g-g-E-E-Y-NH2 (ATCATCAACACCAGG; all peptide nucleic acid (PNA), 5' {DOTA-AEEA-S-S}, 3' {EEY-NH2}) [HP18, secondary probe, 15-mer PNA] | 2.0 | 57000 M⁻¹ s⁻¹ | – | too slow to be determined | 87 °C | 100 ± 0 | estimated to be higher | –
4 | DOTA-AEEA-S-S-g-a-c-t-a-c-a-t-c-c-a-g-a-c-t-E-E-Y-NH2 (GACTACATCCAGACT; all peptide nucleic acid (PNA), 5' {DOTA-AEEA-S-S}, 3' {EEY-NH2}) [HP2, first-generation secondary PNA probe (Westerlund et al, 2015), reference compound] | 2.0 | – | – | – | – | – | – | –
5 | DOTA-AEEA-S-S-a-c-c-a-g-g-E-E-Y-NH2 [HP19] | – | 2.1e+07 M⁻¹ s⁻¹ | – | 0.072 s⁻¹ | 55 °C | – | – | 3.4 nM

— US20240148917A1, “PNA PROBES FOR PRETARGETED IMAGING AND THERAPY” (Zytox Therapeutics AB, priority 2020, published 2024)
